{
  "source": "paper PMC6317055",
  "about": "“Metabolites from the Paracel Islands Soft Coral Sinularia cf. molesta” (Marine Drugs, 2018)",
  "key": {"[1]": {"assay": "Cytotoxicity assay, SRB method, HeLa", "assay_type": "cell-based", "conditions": "human, adriamycin positive control, read-out: cytotoxicity IC50 against HeLa cell lines", "protocol": "(§1) Considering the reported cytotoxic activities of some sesquiterpenes, cyclopentenone derivatives, and cembranoid diterpenes, all the compounds were evaluated for their cytotoxic activities against HeLa (human cervical carcinoma), HCT-116 (human colon carcinoma), BEL-7402 (human hepatocellular carcinoma), K562 (human leukemia), and Jurkat (human acute leukemia T) tumor cell lines."}, "[2]": {"target": "T1, protein tyrosine phosphatase 1B (PTP1B) (Homo sapiens, UniProt P18031)", "T1 sequence (P18031 1-435)": "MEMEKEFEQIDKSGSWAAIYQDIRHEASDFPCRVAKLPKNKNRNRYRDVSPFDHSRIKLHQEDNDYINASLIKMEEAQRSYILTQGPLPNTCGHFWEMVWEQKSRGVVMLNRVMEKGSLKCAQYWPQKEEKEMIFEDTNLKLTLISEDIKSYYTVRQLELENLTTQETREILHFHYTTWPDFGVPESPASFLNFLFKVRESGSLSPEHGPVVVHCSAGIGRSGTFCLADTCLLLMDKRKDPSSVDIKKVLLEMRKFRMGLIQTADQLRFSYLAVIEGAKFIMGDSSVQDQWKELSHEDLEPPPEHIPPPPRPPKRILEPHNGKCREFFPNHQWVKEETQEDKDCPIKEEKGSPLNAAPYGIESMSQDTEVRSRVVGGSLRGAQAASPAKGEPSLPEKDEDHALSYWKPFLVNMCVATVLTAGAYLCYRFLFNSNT", "assay": "PTP1B inhibitory assay, pNPP method", "description": "These isolated sesquiterpenes were also assessed for their inhibitory activities against PTP1B."}, "[3]": {"assay": "Cytotoxicity assay, SRB method, HCT-116", "assay_type": "cell-based", "conditions": "human, HCT-116 cells (human colon carcinoma); HCT-116, SRB method, adriamycin positive control; read-out: cytotoxicity IC50 against HCT-116 cell lines", "protocol": "as §1"}, "[4]": {"conditions": "HeLa cells (human cervical carcinoma)"}},
  "data": [
    {"smiles": "C=C(C)[C@@H]1C/C=C2\\C(=O)O[C@@H](C[C@]3(C)CC(=O)[C@H](CC(=O)C1)O3)[C@@H]2O", "note": "[Compound 17, 5-epi-sinuleptolide]", "values": [
      {"measurement": "IC50", "setting": "[1]; [4]", "value": 6.66, "unit": "µM"}
    ]},
    {"smiles": "C=C/C(C)=C\\CCC(C)Cc1cc(C(=O)O)co1", "note": "(stereo not shown) [Compound 8, (5′Z)-5-(2′,6′-Dimethylocta-5′,7′-dienyl)-furan-3-carboxylic acid]", "values": [
      {"measurement": "IC50", "setting": "[2]", "value": 1.24, "unit": "µM"}
    ]},
    {"smiles": "C=C(C)[C@@H]1C/C=C2\\C(=O)O[C@@H](C[C@]3(C)CC(=O)[C@@H](CC(=O)C1)O3)[C@@H]2O", "note": "[Compound 18, sinuleptolide]", "values": [
      {"measurement": "IC50", "setting": "[1]; [4]", "value": 6.1, "unit": "µM"}
    ]},
    {"smiles": "COC12CCC(C)(O)C1=CC(=O)CCC2C", "note": "(stereo not shown) [Compound 5, Molestin D]", "values": [
      {"measurement": "IC50", "setting": "[2]", "value": 344, "unit": "µM"}
    ]},
    {"smiles": "C=C(C)C1CC2=C(C(=O)OC)C=C(O2)C(O)C(C)(O)CC2C=C(C(=O)O2)C(OC(C)=O)C1", "note": "(stereo not shown) [Compound 14, Molestin E]", "values": [
      {"measurement": "IC50", "setting": "[1]", "value": 5.26, "unit": "µM"},
      {"measurement": "IC50", "setting": "[3]", "value": 8.37, "unit": "µM"}
    ]},
    {"smiles": "CC(C)C1=CC2=C(C(=O)C[C@@]2(C)O)[C@H](C)CC1", "note": "[Compound 4, Molestin C]", "values": [
      {"measurement": "IC50", "setting": "[2]", "value": 218, "unit": "µM"}
    ]}
  ]
}
